Measured values as given in patent US20250282742A1, “BENZOFURAN DERIVATIVES FOR TARGETING AUTOPHAGY” (Automera PTE. LTD, priority 2024, published 2025).

The molecules below were run against T1, Recombinant p62 protein (Homo sapiens, UniProt Q13501) (assay: Surface plasmon resonance (SPR) compound binding to immobilised p62). Details: recombinant p62, 15° C.
T1 construct: Recombinant p62 protein was buffer exchanged into Biacore SPR running buffer
Experimental: Example 28: Surface Plasmon Resonance (SPR) Analysis
Recombinant p62 protein was buffer exchanged into Biacore SPR running buffer (Cytiva 100671) using the Slide-A-Lyzer Mini Dialysis system 7K MWCO (Thermo Fisher Scientific, Cat no. 69560). The final protein concentration was determined using the Nanodrop One spectrophotometer (Thermo Fisher Scientific, cat no. ND-ONE-W), with calibration for the dialysis buffer.
The prepared protein was diluted in sodium acetate buffer (NaAc, pH 5.5, Cytiva) to concentrations ranging from approximately 0.25-40 μg/mL. Post-immobilization, the protein required approximately 16 hours of equilibration in running buffer supplemented with 1% DMSO at 15° C. to ensure adequate surface equilibration and protein reorganization.
All SPR experiments were conducted at a constant temperature of 15° C. The SPR chip surface was activated using EDC/NHS for a contact time of 6-10 min at a flow rate of 10 μL/min. This was followed by protein immobilization for 2100 seconds and ethanolamine capping for 420 seconds, both at the same flow rate. Immediately after immobilization, the NH2—REEE peptide was analyzed in Single Cycle Kinetics mode (SCK) to verify surface activity, ensuring it binds the sample with the published affinity (−20 μM by SPR).
For general compound binding studies, experiments were performed at 15° C. using a running buffer composed of 10 mM HEPES, 150 mM NaCl, 1 mM DTT, 0.05% Tween 20, and 1% DMSO at pH 7.4. The test compound was initially prepared at a 20 mM concentration in DMSO and subsequently titrated in 2-fold dilutions. For each assay, 2 μL of the compound was mixed with 198 μL of the running buffer, and the mixture was thoroughly pipetted approximately 15 times for homogenization.
A series of blank injections (0 μM concentration) were included for double referencing, with at least 8 or 16 per plate depending on the format. Typical injection parameters were 120 seconds for association and 180 seconds for dissociation at a flow rate of […]. A four-point solvent correction was prepared with DMSO concentrations ranging from 2% to 0.5% in the buffer. Post each compound injection, the system's needles were washed with 50% DMSO.
Analysis of the SPR data was conducted using the Cytiva Evaluation software. The binding levels at the late time-point of each interaction were corrected for reference, then normalized to percentage bound values to account for variations in immobilization levels, protein molecular weight, and compound molecular weight.
Compound binding studies were carried out according to experimental procedures above and SPR % occupancy was determined and summarized in Table 7.

T1 sequence (Q13501 whole entry, species assumed): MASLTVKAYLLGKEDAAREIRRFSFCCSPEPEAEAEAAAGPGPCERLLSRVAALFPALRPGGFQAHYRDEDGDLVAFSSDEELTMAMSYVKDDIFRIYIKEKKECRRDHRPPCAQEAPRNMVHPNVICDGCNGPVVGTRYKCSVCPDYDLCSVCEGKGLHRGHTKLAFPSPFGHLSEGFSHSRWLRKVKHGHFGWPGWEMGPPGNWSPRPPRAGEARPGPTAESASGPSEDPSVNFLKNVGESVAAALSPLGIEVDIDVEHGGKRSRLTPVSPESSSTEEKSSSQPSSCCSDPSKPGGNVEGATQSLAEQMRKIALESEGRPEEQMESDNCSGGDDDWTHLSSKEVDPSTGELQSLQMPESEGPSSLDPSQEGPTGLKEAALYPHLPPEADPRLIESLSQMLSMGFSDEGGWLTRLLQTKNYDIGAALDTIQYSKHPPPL

| SMILES | receptor occupancy at 100 µM [%] |
| --- | --- |
| OCCNCc1ccc2nc(Cc3ccccc3)oc2c1 [compound 47, 2-(((2-benzylbenzo[d]oxazol-6-yl)methyl)amino)ethan-1-ol] | < 30 |
| O=C(NCCO)c1ccc2cc(Cc3ccccc3)oc2c1 [Compound 6, 2-benzyl-N-(2-hydroxyethyl)benzofuran-6-carboxamide] | < 30 |
| O=C(NCCO)c1ccc2cc(CCc3ccc(F)cc3)oc2c1 [compound 50, 2-(4-fluorophenethyl)-N-(2-hydroxyethyl)benzofuran-6-carboxamide] | < 30 |
| OCCNCc1cc2oc(Cc3ccccc3)cc2cc1F [Compound 36, 2-(((2-benzyl-5-fluorobenzofuran-6-yl)methyl)amino)ethan-1-ol] | 30 to 70 |
| OCCNCc1ccc2oc(Cc3ccccc3)cc2c1 [compound 45] | 30 to 70 |
| OCCNCc1ccc2cc(CNC3CCOCC3)oc2c1 [compound 32] | < 30 |
| OCCNCc1cccc2oc(Cc3ccccc3)cc12 [compound 4] | 30 to 70 |
| O=C(CCO)Nc1ccc2cc(Cc3ccccc3)oc2c1 [Compound 11, N-(2-benzylbenzofuran-6-yl)-3-hydroxypropanamide] | < 30 |
| OCCNCc1ccc2nc(Cc3ccccc3)sc2c1 [compound 48, 2-(((2-benzylbenzo[d]thiazol-6-yl)methyl)amino)ethan-1-ol] | 30 to 70 |
| OCCNCc1ccc2cc(Cc3ccncc3)oc2c1 [Compound 16, 2-(((2-(pyridin-4-ylmethyl)benzofuran-6-yl)methyl)amino)ethan-1-ol] | 30 to 70 |
| O=S(=O)(c1ccccc1)c1cc2ccc(CNCCO)cc2o1 [Compound 18, 2-(((2-(phenylsulfonyl)benzofuran-6-yl)methyl)amino)ethan-1-ol] | 30 to 70 |
| O=S(=O)(Nc1ccccc1)c1cc2ccc(CNCCO)cc2o1 [Compound 19, 6-(((2-hydroxyethyl)amino)methyl)-N-phenylbenzofuran-2-sulfonamide] | 30 to 70 |
| OCCNCc1ccc2cc(Cc3c[nH]cn3)oc2c1 [compound 23] | < 30 |
| O=C(c1cc2ccc(CNCCO)cc2o1)N1CCCCC1 [Compound 34, (6-(((2-hydroxyethyl)amino)methyl)benzofuran-2-yl)(piperidin-1-yl)methanone] | < 30 |
| OCCNCc1ccc2cc(Cc3ccccc3)oc2c1F [Compound 38, 2-(((2-benzyl-7-fluorobenzofuran-6-yl)methyl)amino)ethan-1-ol] | 30 to 70 |
| CN(C)C(=O)Cc1cc2ccc(CNCCO)cc2o1 [Compound 29, 2-(6-(((2-hydroxyethyl)amino)methyl)benzofuran-2-yl)-N,N-dimethylacetamide] | < 30 |
| OCCNCc1ccc2cc(CN3CCCC(O)C3)oc2c1 (stereo not shown) [compound 28] | < 30 |

The molecules below were run on p62 puncta in HeLa cells (assay: p62 puncta assay (immunocytochemistry and imaging, EVOS M7000 or Operetta CLS)). Details: Homo sapiens, fold change in p62 puncta levels relative to DMSO control, 24 hr.
Type: cell-based
Experimental: HeLa cells were seeded in coated 96-well plates (10,000 cells) and allowed to adhere overnight. After 24 hours of treatment with either vehicle (DMSO) or test compounds, the media was discarded, and cells were rinsed with ice-cold 1×PBS before fixation by 4% formaldehyde or paraformaldehyde for 20 min. Cells were then washed with 1×PBS and permeabilized with 0.1% Triton X-100 in PBS for 20 min and blocked with Blocking Buffer in PBS for 1 hour. The cells were incubated thereafter for 1 hour with anti-p62 primary antibody in Blocking Buffer, followed by incubation with secondary antibody for 1 hour. DAPI dye was used to visualize nuclei of fixed cells. The blocking buffer used were 5% Fetal Bovine Serum (FBS, ThermoFIsher Scientific, 10270106) and Li-cor Intercept (PBS) Blocking Buffer (Li-cor, 927-70001). The primary antibody used was mouse anti-p62 primary antibody (Novus Biologicals, H00008878-MO1). The secondary antibodies used were goat anti-mouse Alexa Fluor Plus 488 secondary antibody (Invitrogen, GOXMS) and goat anti-mouse Alexa Fluor 488 secondary antibody (Invitrogen, A-11029). The DAPI dyes used were DAPI dye (Invitrogen, 62248) and DAPI dye (Invitrogen, D1306).
For the EVOS M7000 System, cells were imaged on the EVOS M7000 microscope using a 20× air objective (Nikon, N.A 0.45). DAPI and p62 channels were illuminated with LED light cubes using integrated hard-coated filter sets for DAPI (357/447 nm) and GFP (470/525 nm) respectively. Images were analysed for p62 puncta count on the Celeste 6.0 software.
For the Operetta CLS System, cells were imaged on the Operetta CLS using a 63× water objective on the DAPI and Alexa 488 channels. Images were analysed for p62 puncta count on the Harmony 5.1 software.
HeLa cells were treated with compounds for 24 hours to evaluate the effect of these compounds on p62 puncta activity. The resulting changes in levels of p62 puncta were assessed by imaging, either on the EVOS M7000 or Operetta CLS systems as described in experimental procedures. The fold change of p62 puncta levels induced by compound treatment relative to vehicle control (DMSO) was determined and summarized in Table 10.

| SMILES | fold induction at 5 µM |
| --- | --- |
| OCCNCc1ccc2oc(Cc3ccccc3)cc2c1 [compound 45] | < 2 |
| C#CCCOCCOCCNCc1ccc2cc(CCc3ccc(F)cc3)oc2c1 [compound 83, 2-(2-(but-3-yn-1-yloxy)ethoxy)-N-((2-(4-fluorophenethyl)benzofuran-6-yl)methyl)ethan-1-amine] | > 2 |
| CC(C)(C)OC(=O)NCCOCCOCCNCc1ccc2cc(CCc3ccc(F)cc3)oc2c1 [compound 124] | > 2 |
| CC(C)(C)OC(=O)CCCCOCCNCc1ccc2cc(CCc3ccc(F)cc3)oc2c1 [compound 137] | < 2 |
| CNC(=O)CCOCCOCCNCc1ccc2cc(-c3ccccc3)oc2c1 [compound 121] | < 2 |
| OCCNCc1ccc2cc(CN3CCCCC3)oc2c1 [compound 25] | < 2 |
| COC(=O)c1cccc(COCCNCc2ccc3cc(CCc4ccc(F)cc4)oc3c2)c1 [compound 135] | < 2 |
| C#CCOCCOCCOCCNCc1ccc2cc(CCc3ccc(F)cc3)oc2c1 [compound 126] | > 2 |
